Results from ChEMBL document CHEMBL3217637, “Temocene: the porphycene analogue of temoporfin (Foscan)” (Medchemcomm, 2011).
Active and inactive are the calls of the source. No cut-off for these calls is given here.

Experiments:
[1] = tested on: HeLa; test: Cellular uptake in human HeLa cells under ultraviolet irradiation at 365 nm at 0.5 uM after 18 hrs by mitotracker green staining-based fluorescence microscopic analysis; type: ADME, cell-based
[2] = Cellular uptake in mitochondria of human HeLa cells under prolonged irradiation at 365 nm up to 10 uM after 18 hrs by mitotracker green staining-based fluorescence microscopic analysis; type: ADME
[3] = tested on: HeLa; test: Phototoxicity against human HeLa cells assessed as decrease in cell viability at < 5 uM preincubated for 18 hrs followed by > 3.5 J/cm'2 of photoirradiation measured after 24 hrs by MTT assay; type: functional, cell-based
[4] = Cellular uptake in cytoplasm of human HeLa cells under ultraviolet irradiation at 365 nm at 1 to 10 uM after 18 hrs by mitotracker green staining-based fluorescence microscopic analysis; type: ADME, cell-based
[5] = Cellular uptake in cytoplasm of human HeLa cells under prolonged irradiation at 365 nm up to 10 uM after 18 hrs by mitotracker green staining-based fluorescence microscopic analysis; type: ADME, cell-based
[6] = tested on: HeLa; test: Cytotoxicity against human HeLa cells assessed as decrease in cell viability under dark condition after 18 hrs by MTT assay; type: cell-based
[7] = Photostability of the compound in aerated acetone under irradiation at 532 nm laser pulses; type: physicochemical; parameters: dose or concentration left out as unconfirmed
[8] = Cellular uptake in mitochondria of human HeLa cells under ultraviolet irradiation at 365 nm at 1 to 10 uM after 18 hrs by mitotracker green staining-based fluorescence microscopic analysis; type: ADME
[9] = tested on: HeLa; test: Phototoxicity against human HeLa cells assessed as decrease in cell viability at > 5 uM preincubated for 18 hrs followed by 3.5 J/cm'2 of photoirradiation measured after 24 hrs by MTT assay; type: functional, cell-based

Drug uptake [1] | Drug uptake [2] | Drug uptake [4] | Drug uptake [5] | Stability [7] | Drug uptake [8] | SMILES | Activity [3] | Activity [6] | Activity [9]
Not Active | Active | Active | Active | Stable | Active | Oc1cccc(C2=Cc3nc2ccc2[nH]c(cc2-c2cccc(O)c2)c2nc(ccc4[nH]c3cc4-c3cccc(O)c3)C(c3cccc(O)c3)=C2)c1 | Active | Non-toxic | Active
 |  |  |  | Stable |  | Oc1cccc(-c2c3nc(c(-c4cccc(O)c4)c4ccc([nH]4)c(-c4cccc(O)c4)c4nc(c(-c5cccc(O)c5)c5ccc2[nH]5)CC4)C=C3)c1 [TEMOPORFIN] |  | Toxic | 
